We go through 18 molecules from patent US20080269298A1, “Benzimidazol-1-YL-thiophene compounds for the treatment of cancer” (priority 2002, published 2008).

One experiment addresses T1, PLK1 kinase domain (Homo sapiens, UniProt P53350).
T1 construct: made in house; host or cells: baculovirus-infected T. ni insect cells
As to the kind of experiment: Assay for Inhibition of PLK1 (SPA enzyme activity). In kind it is biochemical. Particulars: 2 μM ATP, read-out: Ave pIC50 PLK Enzyme Inhibition (converted).

Experiment [1] deals with Normal Human foreskin fibroblasts (HFF). The experiment in a line: Methylene Blue Growth Inhibition Assay, HFF. As to conditions: 72 h, Cell Line HFF, 3 days, read-out: MeB IC50. In kind it is cell-based. The method, boiled down: (§1)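 Cells were plated at line-specific densities (HFF 5,000, RKO 2,500, H460 2,000 cells/well) in DMEM with 10% FBS. Compound was added the next day (0.3% DMSO final) for 3 days at 37° C and 10% CO2. Biomass was read by methylene blue staining (OD 620) relative to vehicle, and IC50 was obtained by nonlinear regression.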

The subject of experiment [2] is breast tumor (MCF7) cell line. As to the kind of experiment: Methylene Blue Growth Inhibition Assay, MCF7. It is filed as cell-based. As to conditions: Homo sapiens, 72 h; Cell Line MCF7, 3 days; read-out: MeB IC50. The method, boiled down:
(§2)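 Growth inhibition is measured as methylene blue-stained biomass (OD 620 nm) after 3 days of compound treatment, relative to vehicle controls. Cells grow in high-glucose DMEM with 10% FBS and 0.3% final DMSO; IC50 comes from nonlinear regression.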

For experiment [3], the system named is colon (RKO) tumor cell line. The experiment in a line: Methylene Blue Growth Inhibition Assay, RKO. In kind it is cell-based. As to conditions: Homo sapiens, 72 h, 3 days, read-out: MeB IC50. The method, boiled down: as §1
Experiment [4] has as its system lung (H460) tumor cell line. The experiment in a line: Methylene Blue Growth Inhibition Assay, H460. In kind it is cell-based. Particulars: Homo sapiens, NCI-H460, 72 h; Cell Line H460, 3 days; read-out: MeB IC50. The gist of the method:
as §1

Experiment [5] concerns colon (HCT116) tumor cell line. As to the kind of experiment: Methylene Blue Growth Inhibition Assay, HCT116. In kind it is cell-based. Particulars: Homo sapiens, HCT-116, 72 h; Cell Line HCT116, 3 days; read-out: MeB IC50. The gist of the method: as §2
Experiment [6] concerns prostate (PC3) tumor cell line. The experiment in a line: Methylene Blue Growth Inhibition Assay, PC3. In kind it is cell-based. Particulars: Homo sapiens, 72 h; Cell Line PC3, 3 days; read-out: MeB IC50. The gist of the method: as §2

Counter-ions that a name gives are not always drawn.

T1 sequence (P53350 21-346): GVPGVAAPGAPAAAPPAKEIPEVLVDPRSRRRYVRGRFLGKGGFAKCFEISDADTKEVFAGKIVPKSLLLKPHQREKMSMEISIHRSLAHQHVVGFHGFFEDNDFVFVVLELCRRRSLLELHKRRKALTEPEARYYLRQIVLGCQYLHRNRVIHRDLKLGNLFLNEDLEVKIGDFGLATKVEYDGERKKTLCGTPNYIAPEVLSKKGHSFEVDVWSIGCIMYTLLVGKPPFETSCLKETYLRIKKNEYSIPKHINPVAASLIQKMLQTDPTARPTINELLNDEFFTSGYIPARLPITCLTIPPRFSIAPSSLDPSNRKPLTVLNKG

Turning to `COc1cc2ncn(-c3cc(OCc4ccccc4C=O)c(C(N)=O)s3)c2cc1OC` [Example 110, 5-(5,6-Dimethoxy-1H-benzimidazol-1-yl)-3-[(2-formylbenzyl)oxy]thiophene-2-carboxamide], the IC50 at PLK1 kinase domain is less than 0.1 µM; in experiment [1] it was greater than 10 µM; in experiment [2], 1 to 10 µM; in experiment [3], less than 1 µM; in experiment [4] it was 1 to 10 µM; in experiment [5] it was less than 1 µM. The IC50 in experiment [6] lay within 1 to 10 µM.

Turning to `NC(=O)c1sc(-n2cnc3ccc(OCC(F)(F)F)cc32)cc1OCc1ccccc1C(F)(F)F` [Example 87, 5-[6-(2,2,2-Trifluoroethoxy)-1H-benzimidazol-1-yl]-3-{[2-(trifluoromethyl)benzyl]oxy}thiophene-2-carboxamide], the IC50 was less than 0.1 µM on PLK1 kinase domain; greater than 10 µM in experiment [1]; 1 to 10 µM in experiment [2]; 1 to 10 µM in experiment [3]; 1 to 10 µM in experiment [4]; 1 to 10 µM in experiment [5]. Also, in experiment [6], the IC50 is greater than 10 µM.

Consider `COc1cc2ncn(-c3cc(O)c(C(N)=O)s3)c2cc1OC` [Example 152, 5-(5,6-Dimethoxy-1H-benzimidazol-1-yl)-3-hydroxythiophene-2-carboxamide trifluoroacetate], for which the IC50 was 0.1 to 10 µM on PLK1 kinase domain; greater than 10 µM in experiment [1]; greater than 10 µM in experiment [2]; greater than 10 µM in experiment [3]; greater than 10 µM in experiment [4]; greater than 10 µM in experiment [5]. In experiment [6], the IC50 was greater than 10 µM.

Regarding `Cc1ccccc1COc1cc(-n2cnc3ccc(Cl)cc32)sc1C(N)=O` [Example 61], the IC50 on PLK1 kinase domain is less than 0.1 µM; in experiment [1] it was greater than 10 µM; in experiment [2], 1 to 10 µM; in experiment [3] it was 1 to 10 µM; in experiment [4] it was 1 to 10 µM; in experiment [5], 1 to 10 µM. Further, the IC50 in experiment [6] was greater than 10 µM.

Take `COc1cc2ncn(-c3cc(OCc4ccccc4C(F)(F)F)c(C(N)=S)s3)c2cc1OC` [Example 145]: the IC50 at PLK1 kinase domain was less than 0.1 µM; in experiment [1], greater than 10 µM; in experiment [2] it was greater than 10 µM; in experiment [3], greater than 10 µM; in experiment [4], greater than 10 µM; in experiment [5] it was greater than 10 µM. For the same molecule, in experiment [6], the IC50 is greater than 10 µM.

Turning to `COc1cc2ncn(-c3cc(OCc4cccc(I)c4)c(C(N)=O)s3)c2cc1OC` [Example 94], the IC50 on PLK1 kinase domain was less than 0.1 µM; in experiment [1] it was 1 to 10 µM; in experiment [2], 1 to 10 µM; in experiment [3] it was 1 to 10 µM; in experiment [4], 1 to 10 µM; in experiment [5], 1 to 10 µM. For the same molecule, in experiment [6], the IC50 was 1 to 10 µM.

In the case of `O=C(O)c1sc(-n2cnc3cc(Cl)c(Cl)cc32)cc1OCc1cccs1` [Example 80, 5-(5,6-Dichloro-1H-benzimidazol-1-yl)-3-(thien-2-ylmethoxy)-thiophene-2-carboxylic acid], the IC50 at PLK1 kinase domain is less than 0.1 µM; in experiment [1], greater than 10 µM; in experiment [2] it was greater than 10 µM; in experiment [3], greater than 10 µM; in experiment [4], greater than 10 µM; in experiment [5], greater than 10 µM. In addition, in experiment [6], the IC50 was greater than 10 µM.

Turning to `NC(=O)c1sc(-n2cnc3ccc(Br)cc32)cc1OCc1ccccc1C(F)(F)F` [Example 62, 5-(6-Bromo-1H-benzimidazol-1-yl)-3-{[2-(trifluoromethyl)benzyl]-oxy}thiophene-2-carboxamide], the IC50 on PLK1 kinase domain is less than 0.1 µM; in experiment [1], 1 to 10 µM; in experiment [2], less than 1 µM; in experiment [3] it was less than 1 µM; in experiment [4], less than 1 µM; in experiment [5], less than 1 µM. The IC50 in experiment [6] is greater than 10 µM.

With `COc1cc2ncn(-c3cc(OS(=O)(=O)c4ccccc4C)c(C(=O)O)s3)c2cc1OC` [Example 151, 5-(5,6-Dimethoxy-1H-benzimidazol-1-yl)-3-{[(2-methylphenyl)sulfonyl]oxy}thiophene-2-carboxylic acid], the IC50 on PLK1 kinase domain is less than 0.1 µM; in experiment [1], greater than 10 µM; in experiment [2] it was greater than 10 µM; in experiment [3], greater than 10 µM; in experiment [4], greater than 10 µM; in experiment [5], greater than 10 µM. Besides, the IC50 in experiment [6] is greater than 10 µM.

Consider `COC(=O)c1sc(-n2cnc3cc(OC)c(OC)cc32)cc1OS(=O)(=O)C(F)(F)F` [Example 150, Methyl 5-(5,6-dimethoxy-1H-benzimidazol-1-yl)-3-{[(trifluoromethyl)sulfonyl]oxy}thiophene-2-carboxylate], for which the IC50 on PLK1 kinase domain was 0.1 to 10 µM; in experiment [1], greater than 10 µM; in experiment [2], greater than 10 µM; in experiment [3], greater than 10 µM; in experiment [4], greater than 10 µM; in experiment [5] it was greater than 10 µM. For the same molecule, the IC50 in experiment [6] was greater than 10 µM.

Take `C#Cc1ccccc1COc1cc(-n2cnc3cc(OC)c(OC)cc32)sc1C(N)=O` [Example 106, 5-(5,6-Dimethoxy-1H-benzimidazol-1-yl)-3-[(2-ethynylbenzyl)oxy]thiophene-2-carboxamide]: the IC50 at PLK1 kinase domain was less than 0.1 µM; in experiment [1], greater than 10 µM; in experiment [2], 1 to 10 µM; in experiment [3], 1 to 10 µM; in experiment [4], 1 to 10 µM; in experiment [5] it was 1 to 10 µM. In experiment [6], the IC50 was greater than 10 µM.

In the case of `COc1cc2ncn(-c3cc(OCc4ccccc4Br)c(C(=O)O)s3)c2cc1OC` [Example 76, 3-[(2-Bromobenzyl)oxy]-5-(5,6-dimethoxy-1H-benzimidazol-1-yl)thiophene-2-carboxylic acid], the IC50 on PLK1 kinase domain was less than 0.1 µM; in experiment [1], greater than 10 µM; in experiment [2] it was greater than 10 µM; in experiment [3], greater than 10 µM; in experiment [4] it was greater than 10 µM; in experiment [5], greater than 10 µM. In experiment [6], the IC50 was greater than 10 µM.

Turning to `O=C(O)c1sc(-n2cnc3cc(Cl)c(Cl)cc32)cc1OCc1ccco1` [Example 78, 5-(5,6-Dichloro-1H-benzimidazol-1-yl)-3-(2-furylmethoxy)thiophene-2-carboxylic acid], the IC50 at PLK1 kinase domain was less than 0.1 µM; in experiment [1], greater than 10 µM; in experiment [2] it was greater than 10 µM; in experiment [3] it was greater than 10 µM; in experiment [4] it was greater than 10 µM; in experiment [5], greater than 10 µM. For the same molecule, the IC50 in experiment [6] was greater than 10 µM.

`NC(=O)c1sc(-n2cnc3cc(C(=O)NCCN4CCNC4=O)ccc32)cc1OCc1ccccc1C(F)(F)F` [Example 156, 1-(5-(Aminocarbonyl)-4-{[2-(trifluoromethyl)benzyl]oxy}thien-2-yl)-N-[2-(2-oXoimidazolidin-1-yl)ethyl]-1H-benzimidazole-5-carboxamide]: the IC50 on PLK1 kinase domain was less than 0.1 µM; in experiment [1], greater than 10 µM; in experiment [2], greater than 10 µM; in experiment [3], greater than 10 µM; in experiment [4], greater than 10 µM; in experiment [5] it was greater than 10 µM. In experiment [6], the IC50 is greater than 10 µM.

Take `COc1cc2ncn(-c3cc(OCC4CCCCO4)c(C(N)=O)s3)c2cc1OC` (stereo not drawn) [Example 112, 5-(5,6-Dimethoxy-1H-benzimidazol-1-yl)-3-(tetrahydro-2H-pyran-2-ylmethoxy)thiophene-2-carboxamide]: the IC50 is 0.1 to 10 µM at PLK1 kinase domain; greater than 10 µM in experiment [1]; greater than 10 µM in experiment [2]; 1 to 10 µM in experiment [3]; 1 to 10 µM in experiment [4]; greater than 10 µM in experiment [5]. In addition, in experiment [6], the IC50 was greater than 10 µM.

As to `O=C(O)c1sc(-n2cnc3ccc(Cl)cc32)cc1OCc1ccc(F)cc1F` [Example 71, 5-(6-Chloro-1H-benzimidazol-1-yl)-3-[(2,4-difluorobenzyl)oxy]-thiophene-2-carboxylic acid], the IC50 on PLK1 kinase domain is less than 0.1 µM; in experiment [1], greater than 10 µM; in experiment [2], greater than 10 µM; in experiment [3], greater than 10 µM; in experiment [4], greater than 10 µM; in experiment [5] it was greater than 10 µM. Moreover, the IC50 in experiment [6] was greater than 10 µM.

For `NC(=O)c1sc(-n2cnc3cc4c(cc32)OCCO4)cc1OCc1ccccc1C(F)(F)F` [Example 123, 5-(6,7-Dihydro-1H-[1,4]dioxino[2,3f]benzimidazol-1-yl)-3-{[2-(trifluoromethyl)benzyl]-oxy}thiophene-2-carboxamide], the IC50 was less than 0.1 µM at PLK1 kinase domain; 1 to 10 µM in experiment [1]; 1 to 10 µM in experiment [2]; 1 to 10 µM in experiment [3]; 1 to 10 µM in experiment [4]; 1 to 10 µM in experiment [5]. Besides, the IC50 in experiment [6] was greater than 10 µM.

Take `COc1cc2ncn(-c3cc(OCc4ccccc4C(F)(F)F)c(C(N)=O)s3)c2cc1OCCN1CCOCC1` [Example 137, 5-(5-(Methyloxy)-6-{[2-(4-morpholinyl)ethyl]oxy}-1H-benzimidazol-1-yl)-3-({[2-(trifluoromethyl)phenyl]methyl}oxy)-2-thiophenecarboxamide]: the IC50 at PLK1 kinase domain was less than 0.1 µM; in experiment [1], greater than 10 µM; in experiment [2], 1 to 10 µM; in experiment [3], 1 to 10 µM; in experiment [4] it was 1 to 10 µM; in experiment [5] it was less than 1 µM. Moreover, the IC50 in experiment [6] is 1 to 10 µM.
